Patent publication US4788209A, “Antifungal 2-anilinothiazolines” (Merrell Dow Pharmaceuticals Inc., priority 1987, dated 1988)
Converted amounts (≈) assume the structure as drawn. Like-named read-outs stand apart in the source and are kept apart here.

How the values were obtained:
Candida albicans [1] = assay: Single dose therapy of rat vaginitis (vaginal candidiasis) induced by two challenge levels; assay type: in vivo; conditions: 0.2 ml of 10% solution intravaginally, 24 hours after treatment
Description: To compare the activity of N-(4-hexylphenyl)-4,5-dihydro-2-thiazolamine with that of the well established antifungal agents miconazole and Clotrimazole, vaginal candidiasis was induced in rats.
Groups of 6 female, ovariectomized rats, 180-200 gram weight, were pretreated for 2 successive days with 0.5 mg of progesterone and 0.5 mg of estradiol administered subcutaneously to induce oestrus. Forty-eight hours later rats were infected intravaginally on 2 successive days with Candida albicans cells. Challenge levels of 1×10^7 and 1×10^6 cells were employed. Seventy-two hours after infection, the rats were treated topically (intravaginally) with 0.2 ml of a 10% solution of test compound in a vehicle consisting of the following: cetyl alcohol, 3.5 gm; glycerol monostearate polyethyleneglycol 100, 4.0 gm; diglycol stearate, 3.0 gm; polyethyleneglycol 400, 18.75 gm; and purified water, 18.75 gm.
Twenty-four hours after treatment, vaginal washings were collected, diluted and mixed with Mycosel agar in petri dishes. The dishes were incubated for 48 hours and colonies were counted to determine the surviving number of yeast cells per vaginal washing.

Candida pseudotropicalis = assay: Minimal inhibitory concentration against yeasts (Mycophil agar, Steers-Foltz apparatus); assay type: cell-based; conditions: Kluyveromyces marxianus; 24 hours at 37° C.
Description: (§1) The compounds of the present invention show activity against pathogenic fungi in vitro and in vivo. The activity of N-(4-hexylphenyl)-4,5-dihydro-2-thiazolamine against various yeast fungi commonly responsible for diseases of humans and animals is illustrated in Table I.
(§2) The compound was prepared in 20 ml aliquots of Mycophil agar at concentrations of 1.5 μM to 250 μM. The agar surfaces were innoculated with approximately 1×10^5 yeast cells/ml using a Steers-Foltz apparatus. The plates were incubated for 24 hours at 37° C. and examined for yeast growth. The minimal inhibitory concentration (MIC) is reported as the lowest concentration of compound that inhibited growth.

Torulopsis glabrata = assay: as above; assay type: cell-based; conditions: Nakaseomyces glabratus; 24 hours at 37° C.
Description: as §1, §2

Candida albicans [2] = assay: as above; assay type: cell-based; conditions: 24 hours at 37° C.
Description: as §1, §2

Candida parapsilosis = assay: as above; assay type: cell-based; conditions: Lodderomyces parapsilosis; 24 hours at 37° C.
Description: as §1, §2

Candida tropicalis = assay: as above; assay type: cell-based; conditions: 24 hours at 37° C.
Description: as §1, §2

| Compound | % Killed (Candida albicans [1]; challenge 1 × 10^6 cells) | Cells/ml Lavage (Candida albicans [1]; challenge 1 × 10^6 cells) | % Killed (Candida albicans [1]; challenge 1 × 10^7 cells) | Cells/ml Lavage (Candida albicans [1]; challenge 1 × 10^7 cells) | MIC (Candida pseudotropicalis) | MIC (Torulopsis glabrata) | MIC (Candida albicans [2]; Candida albicans, strain 1, read-out: MIC) | MIC (Candida albicans [2]; strain 8) | MIC (Candida albicans [2]; strain 10) | MIC (Candida albicans [2]; strain 14) | MIC (Candida albicans [2]; strain 16) | MIC (Candida parapsilosis) | MIC (Candida tropicalis; Candida tropicalis, strain 4, read-out: MIC) | MIC (Candida tropicalis; strain 20) |
| --- | --- | --- | --- | --- | --- | --- | --- | --- | --- | --- | --- | --- | --- | --- |
| Clc1ccccc1C(c1ccccc1)(c1ccccc1)n1ccnc1 [Clotrimazole] | 83% | 1 × 10^4 Cells/ml | 75% | 5 × 10^4 Cells/ml |  |  |  |  |  |  |  |  |  |  |
| Clc1ccc(COC(Cn2ccnc2)c2ccc(Cl)cc2Cl)c(Cl)c1 (stereo not shown) [Miconazole, miconazole] | 88% | 7 × 10^3 Cells/ml | 90% | 2 × 10^4 Cells/ml |  |  |  |  |  |  |  |  |  |  |
| CCCCCCc1ccc(NC2=NCCS2)cc1 [N-(4-Hexylphenyl)-4,5-dihydro-2-thiazolamine] | 97% | 2 × 10^3 Cells/ml | 98% | 5 × 10^3 Cells/ml | 2 µg/mL (≈ 7.62 µM) | 8 µg/mL (≈ 30.5 µM) | 8 µg/mL (≈ 30.5 µM) | 8 µg/mL (≈ 30.5 µM) | 8 µg/mL (≈ 30.5 µM) | 8 µg/mL (≈ 30.5 µM) | 8 µg/mL (≈ 30.5 µM) | 4 µg/mL (≈ 15.2 µM) | 8 µg/mL (≈ 30.5 µM) | 8 µg/mL (≈ 30.5 µM) |
